Measurements as given in paper PMC11284788, “NN1213 – A Potent, Long-Acting, and Selective Analog of Human Amylin” (Journal of Medicinal Chemistry, 2024).
≈ marks a conversion by molar mass, not a printed value. Like-named read-outs stand apart in the source and are kept apart here. Numbered stars: 1 amine (or outer) side, 2 acyl side, 3 side chain; on linkers, the order of the positions; unused ones are H or OH. Bridge positions count the residues as written; N and C are the ends. Peptide text beside a SMILES is read from it. * marks the point of attachment. C20 diacid = O=C(O)CCCCCCCCCCCCCCCCCCC(=O)*; γGlu = O=C(O)[C@H](CCC(=O)[*:2])N[*:1]; AEEA = NCCOCCOCC(=O)O

Key:
[1] = Solubility versus pH profile
hAMY3R [2] = biological target: T1, hAMY3R (Homo sapiens, UniProt O60896+P30988); experiment: cAMP-responsive element luciferase reporter assay, human AMY3R; assay type: cell-based; set-up: expressed in transfected cells; details: for hAMY3R pEC50 / EC50: luciferase (human receptor assay); for ratio hCTR/hAMY3R: ratio of luciferase EC50 values
T1 sequence (P30988 25-474): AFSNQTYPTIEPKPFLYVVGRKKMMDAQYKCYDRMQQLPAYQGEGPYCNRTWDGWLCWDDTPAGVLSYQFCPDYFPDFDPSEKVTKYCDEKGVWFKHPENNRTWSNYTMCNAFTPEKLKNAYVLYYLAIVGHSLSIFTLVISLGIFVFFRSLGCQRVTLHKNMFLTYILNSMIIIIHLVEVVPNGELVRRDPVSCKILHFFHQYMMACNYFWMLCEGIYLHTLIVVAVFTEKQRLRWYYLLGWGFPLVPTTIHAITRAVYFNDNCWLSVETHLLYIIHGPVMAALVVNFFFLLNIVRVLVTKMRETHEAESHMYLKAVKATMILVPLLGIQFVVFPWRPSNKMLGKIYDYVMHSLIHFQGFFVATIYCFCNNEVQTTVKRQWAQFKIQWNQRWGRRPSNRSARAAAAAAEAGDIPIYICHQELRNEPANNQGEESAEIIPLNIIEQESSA
T1 sequence (O60896 24-148 partner): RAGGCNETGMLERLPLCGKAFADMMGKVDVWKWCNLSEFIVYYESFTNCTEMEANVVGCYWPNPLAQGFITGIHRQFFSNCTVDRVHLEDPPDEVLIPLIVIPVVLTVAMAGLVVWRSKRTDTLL

hAMY3R [3] = biological target: T1, hAMY3R; experiment: scintillation proximity binding assay, hAMY3R membranes; set-up: expressed in transfected cells; host or cells: BHK tk-ts 13, transient co-transfection; membranes for the SPA, whole cells for the species-specific assays; details: for ratio hCTR/hAMY3R: ratio of binding IC50 values
[4] = bis-tris-propane buffer, pH 6, aqueous buffer
[5] = bis-tris-propane buffer, pH 6.5, aqueous buffer
[6] = bis-tris-propane buffer, pH 7, aqueous buffer
[7] = bis-tris-propane buffer, pH 7.5, aqueous buffer
[8] = bis-tris-propane buffer, pH 8, aqueous buffer
[9] = lactate buffer, pH 4, aqueous buffer
[10] = lactate buffer, pH 5, aqueous buffer
[11] = SPA binding assay, Tables S13 and S15
[12] = SPA, BHK cell membranes, 125I-rat amylin, 120 min 25 °C, read-out: hAMY3R IC50

| solubility kinetic [1, 4] [µM] | solubility kinetic [1, 5] [µM] | solubility kinetic [1, 6] [µM] | solubility kinetic [1, 7] [µM] | solubility kinetic [1, 8] [µM] | solubility kinetic [1, 9] [µM] | solubility kinetic [1, 10] [µM] | hAMY3R pEC50 (hAMY3R [2]; Tables S12 and S14) | ratio hCTR/hAMY3R (hAMY3R [2]) | hAMY3R pIC50 (hAMY3R [3]; [11]) | IC50 (hAMY3R [3]; [12]) [nM] | ratio hCTR/hAMY3R (hAMY3R [3]) | EC50 (hAMY3R [2]; Tables S12 and S14, read-out: hAMY3R pEC50 (converted)) [nM] | EC50 (hAMY3R [2]; BHK cells stably expressing hCTR+RAMP3 and CRE-luciferase, 3 h, 37 °C, 10% FBS, read-out: hAMY3R EC50) [nM] | IC50 (hAMY3R [3]; SPA binding assay, Tables S13 and S15, read-out: hAMY3R pIC50 (converted)) [nM] | Compound |
| --- | --- | --- | --- | --- | --- | --- | --- | --- | --- | --- | --- | --- | --- | --- | --- |
| ≥ 200 | ≥ 200 | ≥ 200 | ≥ 200 | ≥ 200 | ≥ 200 | ≥ 200 | 9.66 | 12 | 9.18 | 0.662 | 29 |  |  |  | CC[C@H](C)[C@H](NC(=O)[C@H](C)NC(=O)CNC(=O)[C@H](Cc1ccccc1)NC(=O)[C@H](CC(N)=O)NC(=O)[C@@H]1CCCN1C(=O)[C@H](CO)NC(=O)[C@H](CO)NC(=O)[C@H](Cc1c[nH]cn1)NC(=O)[C@H](CCCNC(=N)N)NC(=O)[C@H](CC(C)C)NC(=O)[C@H](Cc1ccccc1)NC(=O)[C@H](CC(N)=O)NC(=O)[C@H](C)NC(=O)[C@H](CC(C)C)NC(=O)[C@H](CCCNC(=N)N)NC(=O)[C@H](CCC(N)=O)NC(=O)[C@@H](NC(=O)[C@H](C)NC(=O)[C@@H]1CSSC[C@H](NC(=O)[C@H](CCCCN)NC(=O)CC[C@H](NC(=O)CCCCCCCCCCCCCCCCCCC(=O)O)C(=O)O)C(=O)N[C@@H](CC(N)=O)C(=O)N[C@@H]([C@@H](C)O)C(=O)N[C@@H](C)C(=O)N[C@@H]([C@@H](C)O)C(=O)N1)[C@@H](C)O)C(=O)N1CCC[C@H]1C(=O)N[C@@H](CO)C(=O)N[C@@H](CO)C(=O)N[C@H](C(=O)N[C@@H](CC(N)=O)C(=O)N[C@H](C(=O)NCC(=O)N[C@@H](CCCNC(=N)N)C(=O)N[C@@H](CC(N)=O)C(=O)N[C@H](C(=O)N[C@@H](Cc1ccc(O)cc1)C(N)=O)[C@@H](C)O)C(C)C)[C@@H](C)O [Peptide 16] |
| ≥ 200 | ≥ 200 | ≥ 200 | ≥ 200 | ≥ 200 | ≥ 200 | ≥ 200 |  | 17 |  | 0.484 | 29 | 0.151 | 0.151 | 0.479 | CC[C@H](C)[C@H](NC(=O)[C@H](C)NC(=O)CNC(=O)[C@H](Cc1ccccc1)NC(=O)[C@H](CC(N)=O)NC(=O)[C@@H]1CCCN1C(=O)[C@H](CO)NC(=O)[C@H](CO)NC(=O)[C@H](Cc1c[nH]cn1)NC(=O)[C@H](CCCNC(=N)N)NC(=O)[C@H](CC(C)C)NC(=O)[C@H](Cc1ccccc1)NC(=O)[C@H](CC(N)=O)NC(=O)[C@H](C)NC(=O)[C@H](CC(C)C)NC(=O)[C@H](CCCNC(=N)N)NC(=O)[C@H](CCC(N)=O)NC(=O)[C@@H](NC(=O)[C@H](C)NC(=O)[C@@H]1CSSC[C@H](NC(=O)[C@H](CCCCN)NC(=O)CC[C@H](NC(=O)CCCCCCCCCCCCCCCCCCC(=O)O)C(=O)O)C(=O)N[C@@H](CC(N)=O)C(=O)N[C@@H]([C@@H](C)O)C(=O)N[C@@H](C)C(=O)N[C@@H]([C@@H](C)O)C(=O)N1)[C@@H](C)O)C(=O)N1CCC[C@H]1C(=O)N[C@@H](CO)C(=O)N[C@@H](CO)C(=O)N[C@H](C(=O)N[C@@H](CC(N)=O)C(=O)N[C@H](C(=O)NCC(=O)N[C@@H](Cc1c[nH]cn1)C(=O)N[C@@H](CC(N)=O)C(=O)N[C@H](C(=O)N[C@@H](Cc1ccc(O)cc1)C(N)=O)[C@@H](C)O)C(C)C)[C@@H](C)O [Peptide 17] |
| ≥ 200 | ≥ 200 | ≥ 200 | ≥ 200 | ≥ 200 | ≥ 200 | ≥ 200 |  | 19 |  |  | 19 |  |  |  | CC[C@H](C)[C@H](NC(=O)[C@H](C)NC(=O)CNC(=O)[C@H](Cc1ccccc1)NC(=O)[C@H](CC(N)=O)NC(=O)[C@@H]1CCCN1C(=O)[C@H](CO)NC(=O)[C@H](CO)NC(=O)[C@H](Cc1c[nH]cn1)NC(=O)[C@H](CCCNC(=N)N)NC(=O)[C@H](CC(C)C)NC(=O)[C@H](Cc1ccccc1)NC(=O)[C@H](CC(N)=O)NC(=O)[C@H](C)NC(=O)[C@H](CC(C)C)NC(=O)[C@H](CCCNC(=N)N)NC(=O)[C@H](CCC(N)=O)NC(=O)[C@@H](NC(=O)[C@H](C)NC(=O)[C@@H]1CSSC[C@H](NC(=O)[C@H](CCCCN)NC(=O)COCCOCCNC(=O)CC[C@H](NC(=O)CCCCCCCCCCCCCCCCCCC(=O)O)C(=O)O)C(=O)N[C@@H](CC(N)=O)C(=O)N[C@@H]([C@@H](C)O)C(=O)N[C@@H](C)C(=O)N[C@@H]([C@@H](C)O)C(=O)N1)[C@@H](C)O)C(=O)N1CCC[C@H]1C(=O)N[C@@H](CO)C(=O)N[C@@H](CO)C(=O)N[C@H](C(=O)N[C@@H](CC(N)=O)C(=O)N[C@H](C(=O)NCC(=O)N[C@@H](CO)C(=O)N[C@@H](Cc1c[nH]cn1)C(=O)N[C@H](C(=O)N[C@@H](Cc1ccc(O)cc1)C(N)=O)[C@@H](C)O)C(C)C)[C@@H](C)O [Peptide 18] ({C20 diacid-γGlu-AEEA}-KCNTATCATQRLANFLRHSSPNFGAIPSSTNVGSHTY-NH2; disulfide 2-7; N-terminus assumed) |
| ≥ 200 | ≥ 200 | ≥ 200 | 50 (≈ 224 µg/mL) | 68 (≈ 305 µg/mL) | ≥ 200 | ≥ 200 | 9.65 | 6 | 9.46 |  | 45 |  |  |  | CC[C@H](C)[C@H](NC(=O)[C@H](C)NC(=O)CNC(=O)[C@H](Cc1ccccc1)NC(=O)[C@H](CC(N)=O)NC(=O)[C@@H]1CCCN1C(=O)[C@H](CO)NC(=O)[C@H](CO)NC(=O)[C@H](Cc1c[nH]cn1)NC(=O)[C@H](CCCNC(=N)N)NC(=O)[C@H](CC(C)C)NC(=O)[C@H](Cc1ccccc1)NC(=O)[C@H](CC(N)=O)NC(=O)[C@H](C)NC(=O)[C@H](CC(C)C)NC(=O)[C@H](CCCNC(=N)N)NC(=O)[C@H](CCC(N)=O)NC(=O)[C@@H](NC(=O)[C@H](C)NC(=O)[C@@H]1CSSC[C@H](NC(=O)[C@H](CCCNC(=N)N)NC(=O)CNC(=O)CC[C@H](NC(=O)CCCCCCCCCCCCCCCCCCC(=O)O)C(=O)O)C(=O)N[C@@H](CC(N)=O)C(=O)N[C@@H]([C@@H](C)O)C(=O)N[C@@H](C)C(=O)N[C@@H]([C@@H](C)O)C(=O)N1)[C@@H](C)O)C(=O)N1CCC[C@H]1C(=O)N[C@@H](CO)C(=O)N[C@@H](CO)C(=O)N[C@H](C(=O)N[C@@H](CC(N)=O)C(=O)N[C@H](C(=O)NCC(=O)N[C@@H](CO)C(=O)N[C@@H](Cc1c[nH]cn1)C(=O)N[C@H](C(=O)N[C@@H](Cc1ccc(O)cc1)C(N)=O)[C@@H](C)O)C(C)C)[C@@H](C)O [Peptide 19] ({C20 diacid-γGlu}-GRCNTATCATQRLANFLRHSSPNFGAIPSSTNVGSHTY-NH2; disulfide 3-8) |
